Experimental data as given in patent US20130337564A1, “Treatment of Pluripotent Cells” (Janssen Biotech, Inc., priority 2012, published 2013).
“And” between values parts separate entries of the source, which are not always exact repeats. Equal values may be shown once.

Assays:
[1] = system: human embryonic stem cells (H9 or H1 lines); assay: Plate reader (MTS) proliferation assay; format: cell-based; conditions: for activity at 10 µM: Homo sapiens, Embryonic stem cell, 96 h; for activity at 10 µM / % Control Value (proliferation): 10 μM test compound with 100 ng/ml activin A on days 1-2, MTS OD490 on day 4, vs Activin A/Wnt3a positive control, strong and moderate hits; for Average: average of replicate raw data; for Raw Data: replicate wells, plate reader proliferation screen of GSK-3B inhibitors; for Average (of Raw Data): plate reader raw signal, mean of replicate wells
Procedure, shortened: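 H9 or H1 cells on Matrigel, washed, then given DMEM:F12 with 0.5% FCS, 100 ng/ml activin A and 10 μM compound (days 1–2), then 2% FCS plus activin A (days 3–4). MTS added day 4, OD490 read after 1.5–4 h at 37 °C; triplicates as percent of activin A/Wnt3a control.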

[2] = system: human embryonic stem cells (H9 line); assay: High content screening assay: cell number (proliferative response); format: cell-based; conditions: for fold induction at 10 µM: Homo sapiens, Embryonic stem cell, read-out: Proliferative Response, Fold over Wnt 3a/AA control
Procedure, shortened: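 H9 hESCs on MATRIGEL treated days 1-2 with 10 μM compound in DMEM:F12, 0.5% FCS, 100 ng/ml activin A; days 3-4 with 2% FCS plus activin A without compound. Fixed cells immunostained for Sox17 or HNF-3beta with Draq5 nuclear counterstain. Cell number and staining intensity quantified by high-content imaging, 12 fields/well.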

[3] = 10 μM test compound with 100 ng/ml activin A on days 1-2, H9, total cell number by IN Cell Analyzer, strong and moderate hits
[4] = cell number in the wells analysed for HNF-3b expression
[5] = cell number in the wells analysed for SOX-17 expression
[6] = cell number in the wells analysed for HNF-3b expression, normalised to Wnt 3a/AA control
[7] = cell number in the wells analysed for SOX-17 expression, normalised to Wnt 3a/AA control
[8] = relative to AA/Wnt3a/DMSO positive control (100.0) of the same plate
[9] = proliferation of human embryonic stem cells
[10] = proliferation of human embryonic stem cells, AA/Wnt3a = 100.0, no cells = 0.0

Row | Compound | activity at 10 µM [1] [%] | Average [1] | fold induction at 10 µM [2, 3] | Proliferative Response Total cells [2, 4] | Proliferative Response Total cells [2, 5] | % Control Value (proliferation) [1] [%] | Raw Data [1] | Proliferative Response Fold over Wnt 3a/AA control [2, 6] [fold] | Proliferative Response Fold over Wnt 3a/AA control [2, 7] [fold] | Proliferative Response Fold over Wnt 3a/AA control [2, 3] | % Control [1, 8] [%] | Average (of Raw Data) [1, 9] | % Control [1, 10] [%]
1 | CN(C)c1ccc(-n2cc(C3=C(c4nn(CCO)c5ccccc45)C(=O)NC3=O)c3cc(Cl)ccc32)cn1 [Compound 148, 3-{5-Chloro-1-[6-(dimethylamino)pyridin-3-yl]-1H-indol-3-yl}-4-[1-(2-hydroxyethyl)-1H-indazol-3-yl]-1H-pyrrole-2,5-dione] | 106 | 1.4937 | 0.799 | 6536 | 12243 | – | – | – | – | – | – | – | –
2 | COC(=O)c1cncc(-n2cc(C3=C(c4nn(CCO)c5ccccc45)C(=O)NC3=O)c3cc(Cl)ccc32)c1 [Compound 150, Methyl 5-(5-chloro-3-{4-[1-(2-hydroxyethyl)-1H-indazol-3-yl]-2,5-dioxo-2,5-dihydro-1H-pyrrol-3-yl}-1H-indol-1-yl)pyridine-3-carboxylate] | 63.3 | 0.9475 | – | 6992 | 7958 | – | – | – | – | – | – | – | –
3 | OCCC#Cc1nc(-c2ccc(F)cc2)c(-c2ccncc2)n1CCCc1ccccc1 [Compound 158, 4-[4-(4-Fluorophenyl)-1-(3-phenylpropyl)-5-pyridin-4-yl-1H-imidazol-2-yl]but-3-yn-1-ol] | 84.7 | 1.2242 | – | 6058 | 6376 | – | – | – | – | – | – | – | –
4 | O=C1NC(=O)C2=C1c1cn(c3ccccc13)CCOCCOCCOCCn1cc2c2ccccc21 [Compound 163, 6,7,9,10,12,13,15,16-Octahydro-23H-5,26:17,22-di(metheno)dibenzo[k,q]pyrrolo[3,4-n][1,4,7,10,19]trioxadiazacyclohenicosine-23,25(24H)-dione] | – | 1.3242 | – | 5485 | 1313 | 142.3 | 1.3764 and 1.2753 and 1.3208 | 4.327 | 0.7864 | – | – | – | –
5 | O=C1NC(=O)C2=C1c1cn(c3ccccc13)CCOCCOCCn1cc2c2ccccc21 [Compound 164, 6,7,9,10,12,13-Hexahydro-20H-5,23:14,19-di(metheno)dibenzo[h,n]pyrrolo[3,4-k][1,4,7,16]dioxadiazacyclooctadecine-20,22(21H)-dione] | – | 0.6350 | – | 67 | 12 | 68.2 | 0.6923 and 0.5994 and 0.6134 | 0.05259 | 0.007385 | – | – | – | –
6 | O=C1NC(=O)C2=C1c1cn(c3ccccc13)CCOCCOCCOCCOCCn1cc2c2ccccc21 [Compound 165, 10,11,13,14,16,17,19,20,22,23-Decahydro-1H-9,4:24,29-di(metheno)dibenzo[n,t]pyrrolo[3,4-q][1,4,7,10,13,22]tetraoxadiazacyclotetracosine-1,3(2H)-dione] | – | 1.8175 | – | 7460 | 2899 | 195.3 | 1.7896 and 1.4721 and 2.1908 | 5.885 | 1.736 | 5.8846 Fold over Wnt 3a/AA control | – | – | –
7 | O=C(Nc1ccc(C(=O)N2CC3CSCCN3Cc3ccccc32)c(Cl)c1)c1cc(Cl)cc(Cl)c1 (centres unmarked) [Compound 166, 3,5-Dichloro-N-[3-chloro-4-(3,4,12,12a-tetrahydro-1H-[1,4]thiazino[3,4-c][1,4]benzodiazepin-11(6H)-ylcarbonyl)phenyl]benzamide] | 180 | 1.6794 | 0.621 | 787 | 562 | – | – | – | – | – | – | – | –
8 | O=C1NC(=O)C2=C1c1cn(c3ncccc13)CCOCCOCCOCCOCCOCCn1cc2c2cccnc21 [Compound 168, 10,11,13,14,16,17,19,20,22,23,25,26-Dodecahydro-1H-9,4:27,32-di(metheno)dipyrido[2,3-q:3′,2′-w]pyrrolo[3,4-t][1,4,7,10,13,16,25]pentaoxadiazacycloheptacosine-1,3(2H)-dione] | – | 0.3421 | – | 57 | 118 | – | 0.3702 and 0.3193 and 0.3368 | 0.04523 | 0.07046 | – | 36.8 | – | –
9 | O=C1NC(=O)C2=C1c1cn(c3ncccc13)CCOCCOCCOCCOCCn1cc2c2cccnc21 [Compound 169] | – | 0.7138 | – | – | – | 76.7 | 0.5876 and 0.6384 and 0.9154 | – | – | 1.0764 Fold over Wnt 3a/AA control | – | 0.3354 | 24.4
10 | CN(C)CCCn1cc(C2=C(c3cccc4ccccc34)C(=O)NC2=O)c2cccnc21 [Compound 175, 3-{1-[3-(Dimethylamino)propyl]-1H-pyrrolo[2,3-b]pyridin-3-yl}-4-naphthalen-1-yl-1H-pyrrole-2,5-dione] | – | 0.1467 | – | 42 | 1 | – | – | – | – | – | – | – | –
11 | O=C1NC(=O)C2=C1c1cn(c3ncccc13)CCOCCOCCn1cc2c2cccnc21 [Compound 180, 6,7,9,10,12,13-Hexahydro-20H-5,23:14,19-di(metheno)dipyrido[2,3-h:3′,2′-n]pyrrolo[3,4-k][1,4,7,16]dioxadiazacyclooctadecine-20,22(21H)-dione] | – | 0.1247 | – | 4 | 3 | – | 0.1239 and 0.1233 and 0.1269 | 0.003155 | 0.001796 | – | 13.4 | 0.3793 | 29.3
12 | O=C1NC(=O)C(c2cn(CCCO)c3ncccc23)=C1c1cn(CCCO)cn1 [Compound 182, 3-[1-(3-Hydroxypropyl)-1H-imidazol-4-yl]-4-[1-(3-hydroxypropyl)-1H-pyrrolo[2,3-b]pyridin-3-yl]-1H-pyrrole-2,5-dione] | – | 0.2828 | – | 425 | 20 | – | – | – | – | – | – | – | –
13 | O=C1NC(=O)C(c2cn(CCCO)c3ncccc23)=C1c1cn(CCO)cn1 [Compound 183, 3-[1-(2-Hydroxyethyl)-1H-imidazol-4-yl]-4-[1-(3-hydroxypropyl)-1H-pyrrolo[2,3-b]pyridin-3-yl]-1H-pyrrole-2,5-dione] | – | 0.2321 | – | 5 | 7 | – | – | – | – | – | – | – | –
14 | O=C1NC(=O)C(c2cn(CCCO)c3ncccc23)=C1c1ccn(CCCO)n1 [Compound 185, 3-[1-(3-Hydroxypropyl)-1H-pyrazol-3-yl]-4-[1-(3-hydroxypropyl)-1H-pyrrolo[2,3-b]pyridin-3-yl]-1H-pyrrole-2,5-dione] | – | 0.2632 | 0.944 | – | – | – | – | – | – | – | – | – | –
15 | CN(CCO)CCCn1nc(C2=C(c3cn(-c4cccnc4)c4ccccc34)C(=O)NC2=O)c2ccccc21 [Compound 198, 3-(1-{3-[(2-Hydroxyethyl)(methyl)amino]propyl}-1H-indazol-3-yl)-4-(1-pyridin-3-yl-1H-indol-3-yl)-1H-pyrrole-2,5-dione] | 70.7 | 1.1253 | – | 2594 | 2386 | – | – | – | – | – | – | – | –
